Read-outs that look alike come from different tables or passages of the source.
Tests used:
Type in all cases: biochemical
KPC-2 = KPC-2 (Klebsiella pneumoniae, UniProt Q9F663); experiment: Inhibitory activity on SBL, fluorescent substrate FC-5; conditions: for inhibitory activity on KPC-2 compared to avibactam: comparison in words
OXA-48 = OXA-48 (Klebsiella pneumoniae, UniProt Q6XEC0); experiment: as above; conditions: for inhibitory activity on OXA-48 compared to avibactam: comparison in words
OXA-48, sequence (Q6XEC0 23-265 limits assumed): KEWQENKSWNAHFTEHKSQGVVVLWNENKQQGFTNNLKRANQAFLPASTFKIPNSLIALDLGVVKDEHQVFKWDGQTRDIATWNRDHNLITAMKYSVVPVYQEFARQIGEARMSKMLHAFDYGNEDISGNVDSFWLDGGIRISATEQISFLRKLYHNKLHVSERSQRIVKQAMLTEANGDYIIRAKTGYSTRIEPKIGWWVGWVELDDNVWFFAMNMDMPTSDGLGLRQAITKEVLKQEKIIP

NDM-1 = NDM-1 (Klebsiella pneumoniae, UniProt C7C422); experiment: Inhibitory activity on MBL, fluorescent substrate FC-5
NDM-1, sequence (C7C422 29-270 limits assumed): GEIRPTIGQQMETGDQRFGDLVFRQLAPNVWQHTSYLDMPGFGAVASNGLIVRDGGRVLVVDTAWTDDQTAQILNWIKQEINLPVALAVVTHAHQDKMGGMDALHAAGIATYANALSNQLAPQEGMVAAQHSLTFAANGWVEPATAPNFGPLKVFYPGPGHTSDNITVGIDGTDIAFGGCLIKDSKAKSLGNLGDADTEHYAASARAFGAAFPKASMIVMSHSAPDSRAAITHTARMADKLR

NDM-5 = NDM-5 (Klebsiella pneumoniae, UniProt C7C422, M154L/V88L); experiment: as above
NDM-5, sequence (C7C422 29-270 V88L/M154L): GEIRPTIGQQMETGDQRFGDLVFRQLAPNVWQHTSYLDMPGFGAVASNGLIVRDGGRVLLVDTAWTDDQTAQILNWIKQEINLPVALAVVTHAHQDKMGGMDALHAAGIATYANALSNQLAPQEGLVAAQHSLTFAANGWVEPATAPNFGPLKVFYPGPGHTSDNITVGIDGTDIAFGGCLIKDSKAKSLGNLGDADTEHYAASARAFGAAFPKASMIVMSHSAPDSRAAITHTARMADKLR

IMP-1 = IMP-1 (Serratia marcescens, UniProt P52699); experiment: as above
IMP-1, sequence (P52699 19-246 limits assumed): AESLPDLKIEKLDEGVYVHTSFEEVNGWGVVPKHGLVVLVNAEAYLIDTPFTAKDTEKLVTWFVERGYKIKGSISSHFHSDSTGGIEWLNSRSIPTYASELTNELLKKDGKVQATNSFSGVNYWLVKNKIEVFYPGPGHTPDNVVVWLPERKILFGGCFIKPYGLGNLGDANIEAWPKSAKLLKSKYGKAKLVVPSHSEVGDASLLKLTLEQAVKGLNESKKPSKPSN

VIM-1 = VIM-1 (Pseudomonas aeruginosa, UniProt A0A0F7KYQ8); experiment: as above
VIM-2 = VIM-2 (Escherichia coli, UniProt Q5U7L7); experiment: as above
TEM-1 = TEM-1 (Escherichia coli, UniProt P62593); experiment: Inhibitory activity on SBL, fluorescent substrate FC-5; conditions: for IC50: read-out: Inhibitory activity on SBL TEM-1 (IC50 class); for inhibitory activity on TEM-1 compared to avibactam: comparison in words
TEM-1, sequence (P62593 24-286 limits assumed): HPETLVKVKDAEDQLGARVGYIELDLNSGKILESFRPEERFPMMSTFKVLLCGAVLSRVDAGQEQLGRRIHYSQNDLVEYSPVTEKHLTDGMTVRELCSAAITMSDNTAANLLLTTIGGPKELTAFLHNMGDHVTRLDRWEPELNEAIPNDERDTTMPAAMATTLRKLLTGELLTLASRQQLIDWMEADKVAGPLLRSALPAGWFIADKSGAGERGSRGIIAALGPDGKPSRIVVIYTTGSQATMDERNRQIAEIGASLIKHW

CTX-M-14 = CTX-M-14 (Escherichia coli, UniProt Q9L5C7); experiment: as above; conditions: for inhibitory activity on CTX-M-14 compared to avibactam: comparison in words
CTX-M-14, sequence (Q9L5C7 entry or part of it): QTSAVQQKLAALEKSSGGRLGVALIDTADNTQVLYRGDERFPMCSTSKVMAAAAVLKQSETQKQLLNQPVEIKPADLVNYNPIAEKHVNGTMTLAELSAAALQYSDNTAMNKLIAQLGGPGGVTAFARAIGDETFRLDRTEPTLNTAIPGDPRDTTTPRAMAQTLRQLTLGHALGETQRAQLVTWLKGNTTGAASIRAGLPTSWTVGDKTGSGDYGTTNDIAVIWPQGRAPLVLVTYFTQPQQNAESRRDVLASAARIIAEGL

[1] = salts, read-out: inhibitory activity at a nanomolar-level on KPC-2
[2] = salts, read-out: inhibitory activity at a nanomolar-level on OXA-48
[3] = read-out: Inhibitory activity on MBL NDM-5 (IC50 class)
[4] = Inhibitory activity on MBL VIM-1 (IC50 class)
[5] = Inhibitory activity on SBL OXA-48 (IC50 class)
[6] = read-out: Inhibitory activity on MBL NDM-1 (IC50 class)
[7] = read-out: inhibitory activity at a nanomolar-level on NDM-1
[8] = read-out: inhibitory activity at a nanomolar-level on NDM-5
[9] = IMP-1 and/or IMP-4, read-out: inhibitory activity at a nanomolar-level on IMP-1 and/or IMP-4
[10] = read-out: Inhibitory activity on MBL IMP-1 (IC50 class)
[11] = VIM-1 and/or VIM-2, read-out: inhibitory activity at a nanomolar-level on VIM-1 and/or VIM-2
[12] = read-out: Inhibitory activity on MBL VIM-1 (IC50 class)
[13] = read-out: Inhibitory activity on MBL VIM-2 (IC50 class)
[14] = read-out: Inhibitory activity on SBL KPC-2 (IC50 class)
[15] = read-out: Inhibitory activity on SBL CTX-M-14 (IC50 class)
[16] = read-out: Inhibitory activity on SBL OXA-48 (IC50 class)

KPC-2, sequence (Q9F663 25-293 limits assumed): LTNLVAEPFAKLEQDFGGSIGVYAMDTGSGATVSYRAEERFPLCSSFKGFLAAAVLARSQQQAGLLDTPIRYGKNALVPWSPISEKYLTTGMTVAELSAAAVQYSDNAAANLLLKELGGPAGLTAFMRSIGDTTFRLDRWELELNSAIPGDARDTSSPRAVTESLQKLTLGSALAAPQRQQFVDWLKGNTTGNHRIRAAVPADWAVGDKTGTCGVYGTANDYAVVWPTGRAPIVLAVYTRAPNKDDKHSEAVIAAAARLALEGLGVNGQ

| SMILES | IC50 (KPC-2; [1]) [nM] | IC50 (NDM-5; [3]) [nM] | IC50 (TEM-1) [nM] | IC50 (NDM-1; [6]) [nM] | IC50 (IMP-1; [10]) [nM] | IC50 (VIM-1; [12]) [nM] | IC50 (VIM-2; [13]) [nM] | IC50 (KPC-2; [14]) [nM] | IC50 (CTX-M-14; [15]) [nM] | IC50 (OXA-48; [16]) [nM] | further results |
| --- | --- | --- | --- | --- | --- | --- | --- | --- | --- | --- | --- |
| O=C(O)c1c(Cn2ncc3c2CNC3)ccc2c1OB(O)CC2 [66-oxalic acid] | < 10 | – | – | – | – | – | – | – | – | – | IC50 (OXA-48; [2]): < 10 nM |
| O=C(O)c1c(Cn2nccn2)ccc2c1OB(O)C1CC21 (stereo not drawn) [Compound 27] | – | 1000 to 100000 | 10 to 1000 | – | – | – | – | – | – | – | IC50 (NDM-1): 1000 to 100000 nM; IC50 (IMP-1): 1000 to 100000 nM; IC50 (VIM-1; [4]): 1000 to 100000 nM; IC50 (VIM-1; inhibitory activity at a nanomolar-level on VIM-1 and/or VIM-2, text summary, VIM-1 and/or VIM-2): < 1000 nM; IC50 (VIM-2): 10 to 1000 nM; IC50 (KPC-2): < 10 nM; IC50 (CTX-M-14): 10 to 1000 nM; IC50 (OXA-48; [5]): < 10 nM |
| NCc1ccc(-c2cn(Cc3ccc4c(c3C(=O)O)OB(O)CC4)nn2)cc1 [Compound 63] | – | 10 to 1000 | 10 to 1000 | 10 to 1000 | 10 to 1000 | 10 to 1000 | 10 to 1000 | < 10 | 10 to 1000 | < 10 | IC50 (NDM-1; [7]): < 1000 nM; IC50 (NDM-5; [8]): < 1000 nM; IC50 (IMP-1; [9]): < 1000 nM; IC50 (VIM-1; [11]): < 1000 nM; inhibitory activity on KPC-2 compared to avibactam (KPC-2): better or comparable; inhibitory activity on TEM-1 compared to avibactam (TEM-1): better or comparable; inhibitory activity on CTX-M-14 compared to avibactam (CTX-M-14): better or comparable; inhibitory activity on OXA-48 compared to avibactam (OXA-48): better or comparable |
| NC1(c2cn(Cc3ccc4c(c3C(=O)O)OB(O)CC4)nn2)CC1 [41-propionic acid] | < 10 | – | – | – | – | – | – | – | – | – | – |
| O=C(O)c1c(Cn2ncc3c2CNC3)ccc2c1OB(O)CC2 [Compound 66] | – | – | 10 to 1000 | – | – | – | – | < 10 | 10 to 1000 | < 10 | – |
| NCCc1ccc(-c2cn(Cc3ccc4c(c3C(=O)O)OB(O)CC4)nn2)cc1 [63-tartaric acid] | < 10 | – | – | – | – | – | – | < 10 | – | – | – |
| N=C(N)NCc1ccc(-c2cn(Cc3ccc4c(c3C(=O)O)OB(O)CC4)nn2)cc1 [Compound 64] | – | – | – | – | – | – | – | < 10 | – | < 10 | inhibitory activity on KPC-2 compared to avibactam (KPC-2): better or comparable; inhibitory activity on TEM-1 compared to avibactam (TEM-1): better or comparable; inhibitory activity on CTX-M-14 compared to avibactam (CTX-M-14): better or comparable; inhibitory activity on OXA-48 compared to avibactam (OXA-48): better or comparable |
| Nc1ccc(-c2cn(Cc3ccc4c(c3C(=O)O)OB(O)CC4)nn2)cn1 [Compound 60] | – | 10 to 1000 | 10 to 1000 | 10 to 1000 | 10 to 1000 | 10 to 1000 | 10 to 1000 | < 10 | 10 to 1000 | < 10 | IC50 (NDM-1; [7]): < 1000 nM; IC50 (NDM-5; [8]): < 1000 nM; IC50 (IMP-1; [9]): < 1000 nM; IC50 (VIM-1; [11]): < 1000 nM; inhibitory activity on KPC-2 compared to avibactam (KPC-2): better or comparable; inhibitory activity on TEM-1 compared to avibactam (TEM-1): better or comparable; inhibitory activity on CTX-M-14 compared to avibactam (CTX-M-14): better or comparable; inhibitory activity on OXA-48 compared to avibactam (OXA-48): better or comparable |
| CC(N)c1cnn(Cc2ccc3c(c2C(=O)O)OB(O)CC3)c1 (stereo not drawn) [Compound 39] | – | 1000 to 100000 | 10 to 1000 | 1000 to 100000 | 1000 to 100000 | 1000 to 100000 | 1000 to 100000 | < 10 | 10 to 1000 | 10 to 1000 | – |
| N[C@H]1CC(=O)N(Cc2ccc3c(c2C(=O)O)OB(O)CC3)C1 [Compound 45] | – | 1000 to 100000 | 10 to 1000 | 1000 to 100000 | 1000 to 100000 | 1000 to 100000 | 1000 to 100000 | 10 to 1000 | 10 to 1000 | 10 to 1000 | – |
| C[C@]1(Cn2ccnn2)[C@H](C(=O)O)N2C(=O)C[C@H]2S1(=O)=O [Tazobactam, reference compound] | – | > 100000 | – | > 100000 | > 100000 | – | > 100000 | 1000 to 100000 | – | – | IC50 (VIM-1; [4]): > 100000 nM; IC50 (OXA-48; [5]): 1000 to 100000 nM |
| Nc1ccc(-c2cn(Cc3ccc4c(c3C(=O)O)OB(O)CC4)nn2)cc1 [Compound 59] | – | 10 to 1000 | < 10 | 10 to 1000 | 10 to 1000 | 10 to 1000 | 10 to 1000 | < 10 | < 10 | < 10 | IC50 (NDM-1; [7]): < 1000 nM; IC50 (NDM-5; [8]): < 1000 nM; IC50 (IMP-1; [9]): < 1000 nM; IC50 (VIM-1; [11]): < 1000 nM; inhibitory activity on KPC-2 compared to avibactam (KPC-2): better or comparable; inhibitory activity on TEM-1 compared to avibactam (TEM-1): better or comparable; inhibitory activity on CTX-M-14 compared to avibactam (CTX-M-14): better or comparable; inhibitory activity on OXA-48 compared to avibactam (OXA-48): better or comparable |
| NC1CN(Cc2cnn(Cc3ccc4c(c3C(=O)O)OB(O)CC4)c2)C1 [Compound 75] | – | > 100000 | 1000 to 100000 | 1000 to 100000 | > 100000 | 1000 to 100000 | > 100000 | 10 to 1000 | 1000 to 100000 | 1000 to 100000 | – |
| NCCc1cnn(Cc2ccc3c(c2C(=O)O)OB(O)CC3)c1 [Compound 43] | – | – | – | – | – | – | – | < 10 | – | – | – |
| O=C(O)c1c(Cn2cc3c(n2)CNC3)ccc2c1OB(O)C=C2 [Compound 52] | – | 1000 to 100000 | 1000 to 100000 | 1000 to 100000 | 1000 to 100000 | 1000 to 100000 | 1000 to 100000 | 1000 to 100000 | 1000 to 100000 | 1000 to 100000 | – |
| NCc1cn(Cc2ccc3c(c2C(=O)O)OB(O)CC3)nn1 [Compound 7] | – | 1000 to 100000 | 10 to 1000 | 1000 to 100000 | 1000 to 100000 | 1000 to 100000 | 1000 to 100000 | 10 to 1000 | 10 to 1000 | 10 to 1000 | – |
| NCCc1cnn(Cc2ccc3c(c2C(=O)O)OB(O)CC3)c1 [43-maleic acid] | < 10 | – | – | – | – | – | – | – | – | – | – |
| NCc1cnn(Cc2ccc3c(c2C(=O)O)OB(O)[C@@H](Sc2nncs2)C3)c1 [Compound 68] | – | 1000 to 100000 | 1000 to 100000 | 10 to 1000 | 1000 to 100000 | 1000 to 100000 | 10 to 1000 | 1000 to 100000 | 1000 to 100000 | 1000 to 100000 | – |
| NCc1ccc(-c2cn(Cc3ccc4c(c3C(=O)O)OB(O)CC4)nn2)cc1 [Compound 63-Na] | < 10 | – | – | – | – | – | – | – | – | – | IC50 (OXA-48; [2]): < 10 nM |
| NCc1cnn(Cc2ccc3c(c2C(=O)O)OB(O)CC3)c1 [Compound 21] | – | – | – | – | – | – | – | < 10 | – | < 10 | – |
| N=C(N)NCc1ccc(-c2cn(Cc3ccc4c(c3C(=O)O)OB(O)CC4)nn2)cc1 [64-citric acid] | < 10 | – | – | – | – | – | – | – | – | – | IC50 (OXA-48; [2]): < 10 nM |
| NC1(c2cn(Cc3ccc4c(c3C(=O)O)OB(O)CC4)nn2)CC1 [Compound 41] | – | – | 10 to 1000 | – | – | – | 10 to 1000 | < 10 | 10 to 1000 | 10 to 1000 | – |
| O=C(O)c1c(Cn2cc3c(n2)CNC3)ccc2c1OB(O)CC2 [Compound 56-Na] | < 10 | – | 10 to 1000 | 10 to 1000 | 1000 to 100000 | 10 to 1000 | 10 to 1000 | < 10 | 10 to 1000 | < 10 | IC50 (OXA-48; [2]): < 10 nM |
| NCc1cnn(Cc2ccc3c(c2C(=O)O)OB(O)CC3)c1 [21-phosphoric acid] | < 10 | – | – | – | – | – | – | – | – | – | IC50 (OXA-48; [2]): < 10 nM |
| N=C(N)N1Cc2cn(Cc3ccc4c(c3C(=O)O)OB(O)CC4)nc2C1 [Compound 58] | – | – | < 10 | – | – | – | – | < 10 | – | < 10 | – |
| N=C(N)N1CC(c2cn(Cc3ccc4c(c3C(=O)O)OB(O)CC4)nn2)C1 [Compound 49-Na] | < 10 | – | – | – | – | – | – | – | – | – | – |
| N=C(N)N1Cc2cn(Cc3ccc4c(c3C(=O)O)OB(O)CC4)nc2C1 [58-toluene sulfonic acid] | < 10 | – | – | – | – | – | – | – | – | – | IC50 (OXA-48; [2]): < 10 nM |
